Experimental data published in ChEMBL document CHEMBL1151002, “Potent, selective, water-soluble benzodiazepine-based CCKB receptor antagonists that contain lipophilic carboxylate surrogates” (Bioorg Med Chem Lett, 1995).
Values after ≈ are worked out from the molar mass of the structure shown.

Tests used:
[1] = Log D is the log of the ratio of concentrations in each phase obtained from partitioning between octanol and 100 mM KH2PO4 buffer at pH 7.4.; assay type: physicochemical; conditions: octanol/100 mM KH2PO4 buffer
[2] = Solubility at a pH 7.4; assay type: physicochemical; conditions: buffer, read-out: S
[3] = Ratio between CCKB and CCKA receptor binding affinity was measured by displacement of [125I]CCK from guinea pig cortical membranes and rat pancreatic tissues respectively
[4] = Compound was evaluated for its solubility at a pH 7.4; assay type: ADME; conditions: buffer
Rattus norvegicus [5] = assay: Compound was evaluated for its penetration into blood-brain barrier measured by its level in rat brain after an intravenous dose of 3 mg/kg after 1 min; assay type: functional, organism-based; parameters: dose 3 mg/kg
Rattus norvegicus [6] = assay: Compound was evaluated for its penetration into blood-brain barrier measured by its level in rat brain after an intravenous dose of 3 mg/kg after 30 min; assay type: functional, organism-based; parameters: dose 3 mg/kg
Rattus norvegicus [7] = assay: Compound was evaluated for its penetration into blood-brain barrier measured by its level in rat brain after an intravenous dose of 3 mg/kg after 10 min; assay type: functional, organism-based; parameters: dose 3 mg/kg
[8] = Oral bioavailability in rat; assay type: ADME, organism-based; conditions: in vivo, read-out: Bioavailabiility
Rattus norvegicus [9] = species on record: Rattus norvegicus; assay: In vitro antagonistic activity for single-cell firing in a slice preparation of the rat ventromedial hyphalamic nucleus; assay type: functional

Compound	logD [1]	solubility [2] [µg/mL]	Selectivity [3]	further results
CN1C(=O)C(NC(=O)Nc2cccc(C(=O)O)c2)N=C(C2CCCCC2)c2ccccc21 (stereo not given)	0.89	1050 (≈ 2420 µM)	2	
CN1C(=O)C(NC(=O)Nc2cccc(C(=O)NS(C)(=O)=O)c2)N=C(C2CCCCC2)c2ccccc21 (stereo not given)	0.34			solubility [4]: 1300 µg/mL (≈ 2540 µM); Level (Rattus norvegicus [5]): 836 ng/g; Level (Rattus norvegicus [6]): 91 ng/g; Level (Rattus norvegicus [7]): 344 ng/g
Cc1cccc(NC(=O)N[C@@H]2N=C(C3CCCCC3)c3ccccc3N(C)C2=O)c1	> 4	< 0.01	6500	
CC(=O)NS(=O)(=O)c1cccc(NC(=O)NC2N=C(C3CCCCC3)c3ccccc3N(C)C2=O)c1 (stereo not given)	0.72	260 (≈ 508 µM)	53	
Cc1ccccc1S(=O)(=O)NC(=O)c1cccc(NC(=O)N[C@@H]2N=C(C3CCCCC3)c3ccccc3N(C)C2=O)c1	2	410 (≈ 698 µM)		
CN1C(=O)C(NC(=O)Nc2cccc(C(=O)NS(=O)(=O)c3ccccc3)c2)N=C(C2CCCCC2)c2ccccc21 (stereo not given)	1.42		19	
CN1C(=O)[C@H](NC(=O)Nc2cccc(C(=O)NS(=O)(=O)c3ccccc3)c2)N=C(C2CCCCC2)c2ccccc21		370 (≈ 645 µM)	> 8000	
CC(C)S(=O)(=O)NC(=O)c1cccc(NC(=O)N[C@@H]2N=C(C3CCCCC3)c3ccccc3N(C)C2=O)c1		1160 (≈ 2150 µM)		
CN1C(=O)C(NC(=O)Nc2cccc(S(=O)(=O)NC(=O)c3ccccc3)c2)N=C(C2CCCCC2)c2ccccc21 (stereo not given)	1.78	50 (≈ 87.2 µM)		bioavailability [8]: 14%; Level (Rattus norvegicus [5]): 222 ng/g; Level (Rattus norvegicus [6]): 72 ng/g; Level (Rattus norvegicus [7]): 120 ng/g; Kb (Rattus norvegicus [9]): 1.2 nM
CC(C)S(=O)(=O)NC(=O)c1cccc(NC(=O)NC2N=C(C3CCCCC3)c3ccccc3N(C)C2=O)c1 (stereo not given)	0.85	740 (≈ 1370 µM)		
